Experimental data from PubChem BioAssay (NCI).
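1) Cells in 96-well plates. 2) Compound, 48 h, 5 concentrations. 3) Linear interpolation between surrounding doses. 4) Unreached endpoint = highest concentration. TGI marks complete inhibition of growth.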

Legend:
Assay in all cases: DTP human tumour cell line panel, 48 h
HS 578T breast = tested on: HS 578T breast
DU-145 prostate = tested on: DU-145 prostate
786-0 renal = tested on: 786-0 renal
COLO 205 colon = tested on: COLO 205 colon
MDA-N = tested on: MDA-N
TK-10 renal = tested on: TK-10 renal
IGROV1 ovarian = tested on: IGROV1 ovarian
NCI-H522 lung = tested on: NCI-H522 lung
M14 melanoma = tested on: M14 melanoma
SW-620 colon = tested on: SW-620 colon
A498 renal = tested on: A498 renal
PC-3 prostate = tested on: PC-3 prostate
OVCAR-4 ovarian = tested on: OVCAR-4 ovarian
MDA-MB-231 breast = tested on: MDA-MB-231 breast
UACC-62 melanoma = tested on: UACC-62 melanoma
U251 CNS = tested on: U251 CNS
KM12 colon = tested on: KM12 colon
NCI-H460 lung = tested on: NCI-H460 lung
SR leukemia = tested on: SR leukemia
UACC-257 melanoma = tested on: UACC-257 melanoma
SK-MEL-5 melanoma = tested on: SK-MEL-5 melanoma
MOLT-4 leukemia = tested on: MOLT-4 leukemia
K-562 leukemia = tested on: K-562 leukemia
HT29 colon = tested on: HT29 colon
RPMI-8226 leukemia = tested on: RPMI-8226 leukemia
SNB-19 CNS = tested on: SNB-19 CNS
HCC-2998 colon = tested on: HCC-2998 colon
SK-OV-3 ovarian = tested on: SK-OV-3 ovarian
MCF7 breast = tested on: MCF7 breast
BT-549 breast = tested on: BT-549 breast
A549 NSCLC = tested on: A549 NSCLC
HCT-15 colon = tested on: HCT-15 colon
MDA-MB-435 = tested on: MDA-MB-435
SF-539 CNS = tested on: SF-539 CNS
T-47D breast = tested on: T-47D breast
HL-60(TB) leukemia = tested on: HL-60(TB) leukemia
CCRF-CEM leukemia = tested on: CCRF-CEM leukemia
SK-MEL-28 melanoma = tested on: SK-MEL-28 melanoma
NCI/ADR-RES ovarian = tested on: NCI/ADR-RES ovarian
RXF 393 renal = tested on: RXF 393 renal
UO-31 renal = tested on: UO-31 renal
OVCAR-8 ovarian = tested on: OVCAR-8 ovarian
SN12C renal = tested on: SN12C renal
OVCAR-3 ovarian = tested on: OVCAR-3 ovarian
LOX IMVI melanoma = tested on: LOX IMVI melanoma
OVCAR-5 ovarian = tested on: OVCAR-5 ovarian
SNB-75 CNS = tested on: SNB-75 CNS
MALME-3M melanoma = tested on: MALME-3M melanoma
EKVX NSCLC = tested on: EKVX NSCLC
SF-268 CNS = tested on: SF-268 CNS
CAKI-1 renal = tested on: CAKI-1 renal
HCT-116 colon = tested on: HCT-116 colon
NCI-H23 lung = tested on: NCI-H23 lung
SK-MEL-2 melanoma = tested on: SK-MEL-2 melanoma
NCI-H226 lung = tested on: NCI-H226 lung
ACHN renal = tested on: ACHN renal
SF-295 CNS = tested on: SF-295 CNS
HOP-62 NSCLC = tested on: HOP-62 NSCLC

## O=[N+]([O-])C1(C2([N+](=O)[O-])CCCC2)CCCC1
HS 578T breast
  TGI: > 100 µM
DU-145 prostate
  TGI: > 100 µM
786-0 renal
  TGI: > 100 µM
COLO 205 colon
  TGI: > 100 µM
MDA-N
  TGI: > 100 µM
TK-10 renal
  TGI: > 100 µM
IGROV1 ovarian
  TGI: > 100 µM
NCI-H522 lung
  TGI: > 100 µM
M14 melanoma
  TGI: > 100 µM
SW-620 colon
  TGI: > 100 µM
A498 renal
  TGI: > 100 µM
PC-3 prostate
  TGI: > 100 µM
OVCAR-4 ovarian
  TGI: > 100 µM
MDA-MB-231 breast
  TGI: > 100 µM
UACC-62 melanoma
  TGI: > 100 µM
U251 CNS
  TGI: > 100 µM
KM12 colon
  TGI: > 100 µM
NCI-H460 lung
  TGI: > 100 µM
SR leukemia
  TGI: > 100 µM
UACC-257 melanoma
  TGI: > 100 µM
SK-MEL-5 melanoma
  TGI: > 100 µM
MOLT-4 leukemia
  TGI: > 100 µM
K-562 leukemia
  TGI: > 100 µM
HT29 colon
  TGI: > 100 µM
RPMI-8226 leukemia
  TGI: > 100 µM
SNB-19 CNS
  TGI: > 100 µM
HCC-2998 colon
  TGI: > 100 µM
SK-OV-3 ovarian
  TGI: > 100 µM
MCF7 breast
  TGI: > 100 µM
BT-549 breast
  TGI: > 100 µM
A549 NSCLC
  TGI: > 100 µM
HCT-15 colon
  TGI: > 100 µM
MDA-MB-435
  TGI: > 100 µM
SF-539 CNS
  TGI: > 100 µM
T-47D breast
  TGI: > 100 µM
HL-60(TB) leukemia
  TGI: > 100 µM
CCRF-CEM leukemia
  TGI: > 100 µM
SK-MEL-28 melanoma
  TGI: > 100 µM
NCI/ADR-RES ovarian
  TGI: > 100 µM
RXF 393 renal
  TGI: > 100 µM
UO-31 renal
  TGI: > 100 µM
OVCAR-8 ovarian
  TGI: > 100 µM
SN12C renal
  TGI: > 100 µM
OVCAR-3 ovarian
  TGI: > 100 µM
LOX IMVI melanoma
  TGI: > 100 µM
OVCAR-5 ovarian
  TGI: > 100 µM
SNB-75 CNS
  TGI: > 100 µM
MALME-3M melanoma
  TGI: > 100 µM
EKVX NSCLC
  TGI: > 100 µM
SF-268 CNS
  TGI: > 100 µM
CAKI-1 renal
  TGI: > 100 µM
HCT-116 colon
  TGI: > 100 µM
NCI-H23 lung
  TGI: > 100 µM
SK-MEL-2 melanoma
  TGI: > 100 µM
NCI-H226 lung
  TGI: > 100 µM

## CSc1c(C#N)c2n(c3ccccc3[n+]2C)c2ncccc12
HS 578T breast
  TGI: > 100 µM
DU-145 prostate
  TGI: 47.2 µM
786-0 renal
  TGI: 50.3 µM
COLO 205 colon
  TGI: 54.2 µM
MDA-N
  TGI: 58.6 µM
IGROV1 ovarian
  TGI: > 100 µM
NCI-H522 lung
  TGI: 48.6 µM
M14 melanoma
  TGI: 52.6 µM
SW-620 colon
  TGI: > 100 µM
A498 renal
  TGI: 84.6 µM
PC-3 prostate
  TGI: 45.3 µM
OVCAR-4 ovarian
  TGI: 91.1 µM
MDA-MB-231 breast
  TGI: 46.9 µM
UACC-62 melanoma
  TGI: 38.9 µM
ACHN renal
  TGI: > 100 µM
U251 CNS
  TGI: 70.8 µM
KM12 colon
  TGI: > 100 µM
NCI-H460 lung
  TGI: > 100 µM
SR leukemia
  TGI: > 100 µM
SF-295 CNS
  TGI: > 100 µM
SK-MEL-5 melanoma
  TGI: 30.5 µM
MOLT-4 leukemia
  TGI: > 100 µM
K-562 leukemia
  TGI: > 100 µM
HT29 colon
  TGI: > 100 µM
RPMI-8226 leukemia
  TGI: > 100 µM
SNB-19 CNS
  TGI: > 100 µM
HCC-2998 colon
  TGI: > 100 µM
SK-OV-3 ovarian
  TGI: > 100 µM
MCF7 breast
  TGI: 42.8 µM
BT-549 breast
  TGI: 70.5 µM
A549 NSCLC
  TGI: 77 µM
HCT-15 colon
  TGI: > 100 µM
HOP-62 NSCLC
  TGI: > 100 µM
MDA-MB-435
  TGI: > 100 µM
T-47D breast
  TGI: 80 µM
CCRF-CEM leukemia
  TGI: > 100 µM
SK-MEL-28 melanoma
  TGI: 49.1 µM
NCI/ADR-RES ovarian
  TGI: 85.5 µM
RXF 393 renal
  TGI: 37.2 µM
UO-31 renal
  TGI: 50.1 µM
OVCAR-8 ovarian
  TGI: 73.4 µM
SN12C renal
  TGI: 67.5 µM
OVCAR-3 ovarian
  TGI: 71.7 µM
LOX IMVI melanoma
  TGI: 34.1 µM
OVCAR-5 ovarian
  TGI: 84.6 µM
SNB-75 CNS
  TGI: 50.4 µM
MALME-3M melanoma
  TGI: 40.3 µM
EKVX NSCLC
  TGI: 50.5 µM
SF-268 CNS
  TGI: 86.9 µM
CAKI-1 renal
  TGI: > 100 µM
HCT-116 colon
  TGI: > 100 µM
NCI-H23 lung
  TGI: 51.6 µM
SK-MEL-2 melanoma
  TGI: 39.7 µM
NCI-H226 lung
  TGI: 49.9 µM
